The source of these data is paper PMC9487510, “A Novel Oral GyrB/ParE Dual Binding Inhibitor Effective against Multidrug-Resistant Neisseria gonorrhoeae and Other High-Threat Pathogens” (Antimicrobial Agents and Chemotherapy, 2022).

In data set [1] the test system is VISA. Nature of the data set: MIC, in vitro susceptibility testing (CLSI). It counts as cell-based, Staphylococcus aureus. The note with it: for MIC: Staphylococcus aureus, VISA.
Data set [2] can be described thus: Liver microsome stability, human. The class given is in vitro ADME. The note with it: liver microsomes. The procedure: Liver microsome stability assays were performed by BioDuro Inc. Human and mouse (CD-1 male) liver microsomes were used. […] Next, 50 μL of reaction buffer was added to solution and mixed via pipetting up and down 6 times. At each time point of 0, 30, and 60 min, an aliquot of 20 μL was removed from each tube. Liver microsomes (LM) working solution was prepared in 0.05 M phosphate reaction buffer (pH = 7.4) to a final concentration of 1.27 mg/mL. NADPH solution was prepared in 0.05 M phosphate buffer to afford a 5 mM buffer solution. […] After vortexing and incubating for 5 min (37°C), 50 μL of NADPH solution was added and mixed via pipetting. At each time point of 0, 5, 15, 30, and 60 min, an aliquot of 20 μL was removed from each tube. Next, 250 μL of quenching solution was aliquoted to quench the reaction, which was then vortexed for 1 min and placed on ice for 40 min. After centrifugation at 4,000 × g for 15 min, 100 μL of supernatant was transferred using a multichannel pipette to 0.65-mL tubes. Samples were diluted with MeOH: H2O (1:1) as necessary. Samples were analyzed by high-pressure liquid chromatography coupled to tandem mass spectrometry (LC/MS/MS) performed on a Sciex Applied Biosystems Qtrap 4000 triple-quadrupole mass spectrometer coupled to a Shimadzu HPLC system to quantify the remaining compound. […]
(In general: Liver microsomes are a subcellular fraction often used to study metabolism.)

Data set [3] deals with Neisseria. The class given is cell-based, N. gonorrhoeae. As to conditions: at 1× MIC; resistance not observed; data not shown.

Converted amounts (≈) assume the structure as drawn.

Usually MIC stands for the lowest concentration that inhibits growth of the organism. Low readings indicate inhibition by little substance, high ones a need for much substance. Compound `CNc1cc(F)cc2c1[nH]c1nc(Oc3cnc(C)nc3)nc(N3CCC4(CC3)CO[C@@H](CO)C4)c12` [JSF-2414] showed an MIC range in data set [1] (N = 8) of 0.0156 to 0.063 µg/mL. Also, the MIC in data set [1] (strain 2 11 43) was 0.0156 to 0.031 µg/mL (≈ 0.0316 to 0.0628 µM); in data set [1] (strain 2 11 56), 0.063 µg/mL (≈ 0.128 µM); in data set [1] (strain 2 11 57), 0.031 to 0.063 µg/mL (≈ 0.0628 to 0.128 µM); in data set [1] (strain 2 11 61), 0.0156 to 0.031 µg/mL (≈ 0.0316 to 0.0628 µM); in data set [1] (strain 2 11 71), 0.0156 to 0.031 µg/mL (≈ 0.0316 to 0.0628 µM); in data set [1] (strain 2 11 78), 0.0156 to 0.031 µg/mL (≈ 0.0316 to 0.0628 µM). Further, the MIC is 0.031 µg/mL (≈ 0.0628 µM) in data set [1] (strain 2 11 86) and 0.0156 to 0.031 µg/mL (≈ 0.0316 to 0.0628 µM) in data set [1] (strain 2 13 52). Also, in data set [2] (pH 7.4, read-out: HLM Clint), the microsomal CLint at 1 μM was determined as 2.1 µL/min/mg. In addition, the half-life at 1 μM in data set [2] (pH 7.4, read-out: HLM t1/2) stood at 5.5 h. For the same compound, the spontaneous resistance frequency in data set [3] is < 7.5 × 10^−4.
